From patent US6984655B1, “Photodynamic therapy for selectively closing neovasa in eyeground tissue” (Meiji Seika Kaisha, Ltd., priority 2000, dated 2006)

Assays:
[1] = tested on: vascular walls of retinal normal vascular vessels and choroidal neovascular vessels (CNV); test: infrared fluorescence fundus angiography of ICG (790 nm excitation) in monkeys having experimental CNV; assay type: in vivo, monkeys of the genus Macaca; details: for infrared fluorescence in CNV / infrared fluorescence in retinal normal vascular vessels: ICG 0.5 mg/kg iv
Excerpt: In these experiments, the time-dependent changes in the concentrations of ICG having distributed and remaining in the vascular walls of the retinal normal vascular vessels and in the vascular walls of the choroidal neovascular vessels (CNV) in the ocular fundus of the monkeys were examined by a process wherein a beam of laser light containing a light of 790 nm-wavelength (as emitted from a semiconductor type laser generator) was used as an excitation light, and wherein the changes in the intensity of the infrared fluorescence emitted from the ICG as excited within said vascular walls were continuously recorded by photographs by means of an infrared light fundus camera apparatus (of modified TCR 50-IA type, manufactured by Topcon Co., Japan) for the infrared fluorescence fundus angiography for diagnosing the ocular fundus, and wherein the photographed images of the fundus were observed visually.
In the same manner as in the above Test Example 1, the neovasculature lesions comprising the experimental choroidal neovascular vessels (CNV) were produced in the ocular fundi of monkeys of the genus Macaca, according to the modified Ryan's method.
An aqueous solution of ICG dissolved in distilled water for the injections at a concentration of 5.0 mg/ml of ICG was intravenously injected at a dose of ICG of 0.5 mg/kg at a vein in the lower limbs of the monkeys having the neovasculature lesions in the retina of the eye.
Immediately after the time of the intravenous injection of ICG, the ocular fundi of the monkeys were continuously observed under irradiation of the beam of laser light containing a light of 790 nm-wavelength by means of an infrared light camera apparatus (of a modified TCR 50-IA type, manufactured by Topcon Co.) for infrared fluorescence fundus the angiography for diagnosing the ocular fundus.
To these test monkeys was intravenously injected ICG at a dose of 1 mg/kg in the same way as in Test Example 3. Immediately after the time of the intravenous injection of ICG, the ocular fundi of the monkeys were continuously observed by means of an infrared light fundus camera apparatus (of modified TCR 50 type, manufactured by Topcon Co., Ltd.) for the infrared fluorescence fundus angiography for diagnosing the ocular fundus. The observation with the fundus camera was made under irradiation of the ocular fundi with the laser light containing a light of 790 nm-wavelength. There was recorded the time point at which the infrared fluorescence of ICG was eliminated entirely from the retinal normal vascular vessels.

[2] = tested on: vascular walls of retinal normal vascular vessels and choroidal neovascular vessels (CNV); test: infrared fluorescence fundus angiography after co-injection of ICG and NPe6 (Test Example 5); assay type: in vivo, monkeys of the genus Macaca; details: ICG 0.5 mg/kg co-injected with NPe6 0.5 mg/kg
Excerpt: The 664 nm-laser light as irradiated was irradiated at an irradiance of 0.68 W/cm^2 for 300 second so that the fluence was of 204 J/cm^2.

[3] = tested on: experimental choroidal neovascular vessels (CNV); details: optical microscope, pathological examination
Excerpt: In the experiments of this Test Example 2, there were used 31 neovasculature lesions chosen from among the neovasculature lesions which comprised the experimental choroidal neovascular vessels (CNV) as produced in the ocular fundi of the monkeys of the genus Macaca by the modified Ryan's method set out in the Test Example 1 above.
The 664 nm-laser light was irradiated for 300 seconds at a fluence of 204 J/cm^2.
The laser light was irradiated for 60 to 300 seconds at different fluences.
The 664 nm-laser light was irradiated at different fluences for 60 seconds or for 10 seconds. […]
After the treatment with the irradiation of 664 nm-laser light was terminated, the test monkeys having the neovasculature lesions, either treated or untreated, were fed for 1 week under routine feeding conditions. After the feeding for one week, the effects of the above treatments were judged by a fluorescence fundus angiography with fluorescein and by a fluorescence fundus angiography with indocyanine green (ICG). […] For the fluorescence fundus angiography with ICG, the ocular fundi of the monkeys were observed and diagnosed by means of SLO or by means of an infrared light fundus camera apparatus for the infrared ocular fundus angiography, after the intravenous injection of ICG. […]

[4] = tested on: vascular walls of retinal normal vascular vessels and choroidal neovascular vessels (CNV); test: fluorescence fundus angiography of NPe6 red fluorescence (488 nm excitation) in monkeys having experimental CNV; assay type: in vivo, monkeys of the genus Macaca; details: for time point at which red fluorescence was substantially entirely eliminated from retinal normal vascular vessels while CNV lesions continued to emit: Test Example 2
Excerpt: The detailed procedures of the above experiments are as follows. Thus, a beam of a laser light of 647 nm wavelenght as emitted from a krypton laser generator [Coherent Medical Laser generator, manufactured by Novua Omni Co.; having an output of 500 to 900 mW] was irradiated as a laser-irradiating spot of a diameter of 50 μm onto the ocular fundi of 8 mature monkeys of the genus Macaca (of body weights of 3.5 kg to 6.0 kg) for 0.1 seconds, according to a modification of the Ryan's method [Arch. Ophthalmol., vol 100; pp. 1804–1809 (1982)]. It is said that the resulting damage in the Bruch's membrane, which were incurred by the irradiation of the 647 nm laser light, is very effective for the incidence of ocular neovascular vessels. Thereby, there were induced the experimental choroidal neovascular vessels (abbreviated as CNV). The induced CNV are the neovascular vessels as branched from the choroidal normal vascular vessels in the ocular fundus. Such CNV have infiltrated in the subretinal space, namely the space between the sensory retina and choroids, to involve the occurrence of exudation, bleeding and retinal detachment. The formation of the neovasculature lesions comprising the CNV was confirmed by a process which comprised intravenously injecting fluorescein or indocyanine green to the so treated monkeys and subsequently carrying out the diagnosis method according to a fluorescence fundus angiography of the ocular fundus.
In the course of said irradiation of 488 nm laser light beam for 10 minutes, the images of the red fluorescence as emitted in the ocular fundus were recorded by photography on a video tape by means of a high-sensitivity television fundus camera apparatus. Thereafter, at intervals of 10 minutes, a beam of 488 nm laser light was repeatedly irradiated to the ocular fundus each for about one minute. At each of the irradiations of the 488 nm laser light beam, the images of the red fluorescence emitted from the vascular vessels of the ocular fundus were recorded on the video tape. […] The images of the fluorescence emitted from the ocular fundus vascular vessels were then reproduced from the recording video tape for the purpose of observation.
During this 10 minutes-irradiation of the 488 nm-laser light to the ocular fundi, the images of the red fluorescence emitted from the ocular fundi were recorded by photography on a video tape by means of a high-sensitivity television fundus camera.
During this irradiation of the 488 nm-laser light, the images of the red fluorescences emitted from the retinal normal vascular vessels and from the choroidal neovascular vessels were observed by an apparatus for the fluorescence ocular fundus angiography of the ocular fundus (namely, an infrared light fundus camera).

[5] = tested on: ocular fundus tissue with choroidal neovascular vessels (CNV); test: fluorescence microscopy of cross-section samples of enucleated eyeballs; assay type: in vivo, monkeys of the genus Macaca; details: 20 mg/kg iv, eyeballs enucleated 65 to 70 minutes after injection, excitation 380 to 420 nm
Method: These cut pieces of the eyeballs were frozen in a bath of liquid nitrogen. Cross-section samples each having a thickness of 5 μm were prepared from the ocular fundus tissue region of the frozen pieces of the eyeballs.

[6] = tested on: experimental choroidal neovascular vessels (CNV); test: PDT with NPe6 timed by prior ICG angiography (Test Example 4)
Method: To these test monkeys was intravenously injected ICG at a dose of 1 mg/kg in the same way as in Test Example 3. Immediately after the time of the intravenous injection of ICG, the ocular fundi of the monkeys were continuously observed by means of an infrared light fundus camera apparatus (of modified TCR 50 type, manufactured by Topcon Co., Ltd.) for the infrared fluorescence fundus angiography for diagnosing the ocular fundus. The observation with the fundus camera was made under irradiation of the ocular fundi with the laser light containing a light of 790 nm-wavelength. There was recorded the time point at which the infrared fluorescence of ICG was eliminated entirely from the retinal normal vascular vessels. The time-gap which was extended between the aforesaid time point as recorded for the entire elimination of the infrared fluorescence of IGC and the time of the intravenous injection of ICG was calculated in a unit of “minutes” or “second”, whereby it was estimated that said time-gap was 30 minutes. • (b) Time was allowed to pass until the infrared fluorescence of ICG was eliminated entirely from the neovasculature lesions in the ocular fundi of the test monkeys. […] The 664 nm-laser light as irradiated was irradiated at an irradiance of 0.57 W/cm2 for 180 seconds so that the fluence was of 102.6 J/cm^2. […]

[7] = tested on: CD-1 (male) mice; test: acute toxicity test (LD50); assay type: in vivo
[8] = 20 minutes after administration
[9] = about 7 to 8 minutes after injection
[10] = 0.5 mg/kg iv, 20 minutes after injection
[11] = 1.0 mg/kg iv, 30 minutes after injection
[12] = 20 mg/kg iv, 7.5 minutes after injection
[13] = 20 mg/kg iv, 20 minutes after injection
[14] = 20 mg/kg iv, 60 minutes after injection

SMILES: CC1(C)C(/C=C/C=C/C=C/C=C2\N(CCCCS(=O)(=O)O)c3ccc4ccccc4c3C2(C)C)=[N+](CCCCS(=O)(=O)[O-])c2ccc3ccccc3c21 [ICG, indocyanine green]
- infrared fluorescence in CNV [1, 8]: increased to a prominent and appreciable intensity
- infrared fluorescence in retinal normal vascular vessels [1, 8]: had decreased
- infrared fluorescence in CNV [1, 9]: a slight but appreciable intensity
- infrared fluorescence in retinal normal vascular vessels [1, 9]: observed at a prominent and appreciable intensity
- time-gap between intravenous injection and entire elimination of infrared fluorescence from retinal normal vascular vessels ([1]; ICG 1 mg/kg iv): 30 min
- infrared fluorescence of ICG in retinal normal vascular vessels ([2]; 20 minutes after injection): decreased to a poor intensity
- infrared fluorescence of ICG in vascular walls of CNV ([2]; 20 minutes after injection): retained at a prominent and apreciable intensity
- infrared fluorescence of ICG in retinal normal vascular vessels [2, 9]: observed at a prominent and appreciable intensity

SMILES: C=Cc1c(C)c2cc3nc(c(CC(=O)N[C@@H](CC(=O)[O-])C(=O)[O-])c4[nH]c(cc5nc(cc1[nH]2)C(C)=C5CC)c(C)c4C(=O)[O-])[C@@H](CCC(=O)[O-])[C@@H]3C.[Na+].[Na+].[Na+].[Na+] [NPe6, mono-L-aspartyl chlorin e6 tetra-sodium salt]
- state of retinal and choroidal normal vascular vessels adjacent to the occluded CNV [3]: remaining intact or nearly intact
- red fluorescence in CNV [4, 10]: confirmably observed at a slight but appreciable intensity
- red fluorescence in retinal normal vascular vessels [4, 10]: substantially entirely been eliminated and disappeared
- time point at which red fluorescence was substantially entirely eliminated from retinal normal vascular vessels while CNV lesions continued to emit ([4]; 0.5 mg/kg iv): 20 min
- red fluorescence in CNV [4, 11]: confirmed at a significant and appreciable intensity
- red fluorescence in retinal normal vascular vessels [4, 11]: substantially entirely been eliminated
- time point at which red fluorescence was substantially entirely eliminated from retinal normal vascular vessels while CNV lesions continued to emit ([4]; 1 mg/kg iv): 30 min
- time point at which red fluorescence was substantially entirely eliminated from retinal normal vascular vessels while CNV lesions continued to emit ([4]; 2 mg/kg iv): 60 min
- time point at which red fluorescence was substantially entirely eliminated from retinal normal vascular vessels while CNV lesions continued to emit ([4]; 10 mg/kg iv): 60 min
- red fluorescence in vascular walls of CNV [4, 12]: observable slightly but detectable at its weak intensity
- red fluorescence in vascular walls of retinal normal vascular vessels [4, 12]: appreciably observable at its prominent intensity
- red fluorescence in CNV [4, 13]: remain at a higher and prominently observable intensity
- red fluorescence in retinal normal vascular vessels [4, 13]: decreased to a lower and hardly detectable intensity
- red fluorescence in CNV [4, 14]: observed at a high and prominent intensity
- red fluorescence in retinal normal vascular vessels [4, 14]: never observable
- time of peak NPe6 concentration in vascular walls of CNV after intravenous injection ([4]; monkeys with experimental CNV): about 20 minutes
- permeation into normal parenchymal tissue of the ocular retina ([4]; monkeys, intravenous): never permeate
- red fluorescence at CNV in cross-section samples [5]: observed confirmably at a significant intensity
- red fluorescence at retinal normal vascular vessels in cross-section samples [5]: only a very slight degree of the red fluorescence
- red fluorescence in cross-section samples of retinal parenchymal region [5]: almost not observable
- number of treated neovasculature lesions whose CNV were successfully occluded ([6]; NPe6 1 mg/kg iv after ICG cleared, irradiation started 30 min, 0.57 W/cm2, 180 s, 102.6 J/cm^2, 3 lesions treated, judged after one week): 3
- state of adjacent retinal normal vascular vessels, retinal parenchymal tissue and choroidal normal vascular vessels ([6]; NPe6 1 mg/kg iv, 664 nm-laser 102.6 J/cm^2, judged after one week): could remain intact
- LD50 [7]: 164 mg/kg
